Experimental findings from US20070032448A1, “Sugar modified nucleosides as viral replication inhibitors” (priority 2002, published 2007) are described below.

Broadly, the EC50 is the midpoint of the concentration-response curve. Usually AUC stands for concentration integrated over time. A high value points to high exposure. The term Cmax denotes the peak of the concentration-time curve. By Tmax is commonly meant the time at which the peak concentration occurs. As usually defined, the bioavailability is dose-corrected exposure relative to a reference, in per cent. A higher bioavailability goes with good availability.

Molecules are shown by their SMILES. Read-outs that look alike come from different tables or passages of the source.

In data set [1] the test system is HCV replicon RNA in replicon cells (Huh-7). Nature of the data set: HCV replicon assay. The data set is classed as cell-based, Hepatitis C virus. The procedure:
The replicon cells (Huh-7) contain replicating HCV replicon RNA, which was modified in the structural region (replacing the structural region with a neomycin resistance marker). Survival of the replicon cells under G418 selection relies on the replication of HCV RNA and subsequently expression of neomycin phosphoryltransferase. The ability of modified nucleoside libraries and compounds to suppress HCV RNA replication was determined using the Quantigene Assay Kit from Bayer. The assay measures the reduction of HCV RNA molecules in the treated cells. Replicon cells were incubated at 37° C. for 3 days in the presence of nucleoside libraries and compounds before harvested for detection. An HCV subgenomic replicon cell line was provided by Dr. Bartenschlager. The assay protocol was modified based on literature procedure (V. Lohmann, F. Korner, J. O. Koch, U. Herian, L. Theilmann, R. Bartenschlager, Science, 1999, 285, 110-113).
A general note: A replicon is a self-replicating genome or part of one, used to study replication in cells.

Data set [2] in a line: Pharmacokinetics, intravenous and oral dosing. The data set is classed as in vivo.
The test system of another data set is mice. Nature of the data set: Toxicity in mice. The data set is classed as in vivo. To be noted: 160 mg/kg dosing.
Setting [3] is: Hepatitis C virus, Huh-7, 72 h, read-out: HCV Replicon EC50.
Setting [4] is: Hepatitis C virus, 72 h, 2′-beta-methyl cytidine and uridine derivatives, Huh-7 replicon cells, 3 days, read-out: HCV REPLICON EC50.
The mark [5] stands for this setting: 2′-beta-6-substituted adenosine derivatives, Huh-7 replicon cells, 3 days, read-out: HCV Replicon EC50.

With `C=C[C@@]1(O)[C@H](O)[C@@H](CO)O[C@H]1n1cnc2c(OC)ncnc21` [Compound P15, 9-(2-C-vinyl-β-D-ribofuranosyl)-6-methoxy-purine], the 50% effective concentration (EC50) in data set [1] (setting [3]) was above 100 µM. On to `Cc1cn([C@@H]2O[C@H](CO)[C@@H](O)[C@@]2(C)O)c(=O)nc1N(C)C` [Compound P44], for which the half-maximal effective concentration (EC50) in data set [1] (setting [4]) is above 100 µM. Take `C[C@@]1(O)[C@H](O)[C@@H](CO)O[C@H]1n1ccc(N)nc1=O` [Compound P37, 2′-β-C-Methylcytidine]: the half-maximal effective concentration (EC50) in data set [1] (setting [4]) is below 10 µM. For the molecule `CN(C)c1ncnc2c1ncn2[C@@H]1O[C@H](CO)[C@@H](O)[C@@]1(C)O` [Compound P23, N^6-Dimethyl-9H-(2′-C-methyl-β-D-ribofuranosyl)adenine], the half-maximal effective concentration (EC50) in data set [1] (setting [5]) is below 10 µM. For the molecule `CC[C@@]1(O)[C@H](O)[C@@H](CO)O[C@H]1n1cnc2c(NC)ncnc21` [Compound P7, N^6-Methyl-2′-C-ethyladenosine], the concentration for a half-maximal effect (EC50) in data set [1] (setting [3]) was above 100 µM. As to `Cc1cn([C@@H]2O[C@H](CO)[C@@H](O)[C@@]2(C)O)c(=O)nc1N` [Compound P38], the half-maximal effective concentration (EC50) in data set [1] (setting [4]) is above 100 µM. Consider `CC[C@@]1(O)[C@H](O)[C@@H](CO)O[C@H]1n1cnc2c(N)ncnc21` [Compound P6, 2′-C-Ethyladenosine], for which, in data set [1] (setting [3]), the concentration giving a half-maximal response (EC50) was above 100 µM. Regarding `CNc1nc(=O)n([C@@H]2O[C@H](CO)[C@@H](O)[C@@]2(C)O)cc1C` [Compound P43], the 50% effective concentration (EC50) in data set [1] (setting [4]) is above 100 µM. `COc1ncnc2c1ncn2[C@@H]1O[C@H](CO)[C@@H](O)[C@@]1(C)O` [Compound P25]: the EC50 in data set [1] (setting [5]) is below 10 µM. As to `COc1ncnc2c1ncn2[C@@H]1O[C@H](CO)[C@@H](O)[C@]1(O)C1CC1` [Compound P20, 9-(2-C-cyclopropyl-β-D-ribofuranosyl)-6-methoxypurine], the EC50 in data set [1] (setting [3]) is above 100 µM. Consider `CNc1ncnc2c1ncn2[C@@H]1O[C@H](CO)[C@@H](O)[C@@]1(C)O` [Compound P22, N^6-Methyl-9H-(2′-C-methyl-β-D-ribofuranosyl)adenine], for which, in data set [1] (setting [5]), the EC50 was below 10 µM. Turning to `CSc1ncnc2c1ncn2[C@@H]1O[C@H](CO)[C@@H](O)[C@]1(O)C1CC1` [Compound P19, 9-(2-C-Cyclopropyl-β-D-ribofuranosyl)-6-methylmercaptopurine], in data set [1] (setting [3]), the EC50 is above 100 µM.

For the molecule `Nc1ncnc2c1ncn2[C@@H]1O[C@H](CO)[C@@H](O)[C@]1(O)C1CC1` [Compound P16, 2′-C-Cyclopropyladenosine], the concentration for a half-maximal effect (EC50) in data set [1] (setting [3]) was above 100 µM. For `CNc1ncnc2c1ncn2[C@@H]1O[C@H](CO)[C@@H](O)[C@]1(O)C1CC1` [Compound P17, N^6-Methyl-2′-C-cyclopropylyladenosine], the EC50 in data set [1] (setting [5]) was above 100 µM.

As for `CNc1ccn([C@@H]2O[C@H](CO)[C@@H](O)[C@@]2(C)O)c(=O)n1` [Compound P40], in data set [1] (setting [4]), the EC50 was above 100 µM. As for `CN(C)c1ccn([C@@H]2O[C@H](CO)[C@@H](O)[C@@]2(C)O)c(=O)n1` [Compound P41], the half-maximal effective concentration (EC50) in data set [1] (setting [4]) was above 100 µM. Consider `C=C[C@@]1(O)[C@H](O)[C@@H](CO)O[C@H]1n1cnc2c(N(C)C)ncnc21` [Compound P13, N^6-Dimethyl-2′-C-vinyladenosine], for which the 50% effective concentration (EC50) in data set [1] (setting [5]) was above 100 µM.

Regarding `C=C[C@@]1(O)[C@H](O)[C@@H](CO)O[C@H]1n1cnc2c(NC)ncnc21` [Compound P12, N^6-Methyl-2′-C-vinyladenosine], in data set [1] (setting [3]), the EC50 is above 100 µM.

Take `CC[C@@]1(O)[C@H](O)[C@@H](CO)O[C@H]1n1cnc2c(OC)ncnc21` [Compound P10, 9-(2-C-ethyl-β-D-ribofuranosyl)-6-methoxy-purine]: in data set [1] (setting [3]), the 50% effective concentration (EC50) was above 100 µM. Turning to `Cc1cn([C@@H]2O[C@H](CO)[C@@H](O)[C@@]2(C)O)c(=O)nc1O` [Compound P42], the 50% effective concentration (EC50) in data set [1] (setting [4]) was above 100 µM. In the case of `CC[C@@]1(O)[C@H](O)[C@@H](CO)O[C@H]1n1cnc2c(N(C)C)ncnc21` [Compound P8, N^6-Dimethyl-2′-C-ethyladenosine], the 50% effective concentration (EC50) in data set [1] (setting [5]) is above 100 µM. Turning to `CN(C)c1ncnc2c1ncn2[C@@H]1O[C@H](CO)[C@@H](O)[C@]1(O)C1CC1` [Compound P18, N^6-Dimethyl-2′-C-cyclopropylyladenosine], the 50% effective concentration (EC50) in data set [1] (setting [5]) was above 100 µM.

For `C=C[C@@]1(O)[C@H](O)[C@@H](CO)O[C@H]1n1cnc2c(SC)ncnc21` [Compound P14, 9-(2-C-Vinyl-β-D-ribofuranosyl)-6-methylmercaptopurine], the EC50 in data set [1] (setting [3]) was above 100 µM. As for `CC[C@@]1(O)[C@H](O)[C@@H](CO)O[C@H]1n1cnc2c(SC)ncnc21` [Compound P9, 9-(2-C-Ethyl-β-D-ribofuranosyl)-6-methylmercaptopurine], the EC50 in data set [1] (setting [3]) was above 100 µM. Take `C[C@@]1(O)[C@H](O)[C@@H](CO)O[C@H]1n1cnc2c(N)ncnc21` [Compound P21]: the EC50 in data set [1] (setting [5]) is below 10 µM. For `C[C@@]1(O)[C@H](O)[C@@H](CO)O[C@H]1n1ccc(O)nc1=O` [Compound P39], the EC50 in data set [1] (setting [4]) was above 100 µM. Regarding `CSc1ncnc2c1ncn2[C@@H]1O[C@H](CO)[C@@H](O)[C@@]1(C)O` [Compound P24, 6-Thiomethyl-9H-(2′-C-methyl-β-D-ribofuranosyl)adenine], the “increase of bioavailability compared to Ribavirin” value in data set [2] (in vivo) is “approximately 4 times”. In data set [2] (intravenous dosing), this molecule returned an AUC of 1950.6 ng·h/mL, a C0 of 3452.4 ng/mL and a t1/2b of 25.8 min. Moreover, in data set [2] (oral dosing), the AUC amounted to 1953.5 ng·h/mL, the Cmax was determined as 1085.0 ng/mL, the Tmax worked out at 45 min and the t1/2β came out at 71.4 min. The molecule also had a bioavailability in data set [2] (oral vs intravenous dosing) of 100%. Further, in data set [1] (setting [5]), the EC50 is below 10 µM. Also, in the data set on mice, the “body weight, food consumption, and behavior” value is on record as “normal”; the “tissue and organ abnormalities” value was “No tissue and organ abnormalities were observed”; the toxicity entry is reported as “did not show toxicity”. `C=C[C@@]1(O)[C@H](O)[C@@H](CO)O[C@H]1n1cnc2c(N)ncnc21` [Compound P11, 2′-C-Vinyladenosine]: the EC50 in data set [1] (setting [3]) is above 100 µM.
